Each structure is given as a SMILES string.

This experiment deals with γ-secretase. Briefly: Cellular γ-secretase assay (inhibition of Aβ42 secretion). The format is cell-based. Conditions: human neuroglioma H4 cells overexpressing human APP, 22 hrs incubation. As for the experimental part: Human neuroglioma H4 cells overexpressing human APP were plated at 30,000 cells/well/[…] in 96-well plates in IMDM media containing 10% FCS, […] Hygromycin B and incubated for 2 h at 37° C., 5% CO2 prior to adding test compounds.
Compounds for testing were dissolved in 100% Me2SO yielding in a 10 mM stock solution. Typically […] of these solutions were further diluted in 1000 μl of IMDM media (w/o FCS). Subsequent 1:1 dilutions gave a ten point dose response curve. 100 μl of each dilution was added to the cells in 96-well plates. Appropriate controls using vehicle only and reference compound were applied to this assay. The final concentration of Me2S0 was 0.4%.
After incubation for 22 hrs at 37° C., 5% CO2, 50 μl supernatant was transferred into round-bottom 96-well polypropylene plates for detection of Aβ42. 50 μl assay buffer (50 mM Tris/Cl, pH 7.4, 60 mM NaCl, 0.5% BSA, 1% TWEEN 20) was added to the wells followed by the addition of 100 μl of detection antibody (ruthenylated BAP15 0.0625 μg/ml in assay buffer). 50 μl of a premix of capture antibody (biotinylated 6E10 antibody, 1 μg/ml) and Steptavidin-coated magnetic beads (Dynal M-280, 0.125 mg/ml) were preincubated for 1 hr at room temperature before adding the assay plates. Assay plates were incubated on a shaker for 3 hrs at room temperature and finally read in the Bioveris M8 Analyser according to the manufacturer's instructions (Bioveris).
IC50 values for inhibition of Aβ42 secretion were calculated by nonlinear regression fit analysis using XLfit 4.0 software (IDBS).

Compound `COc1cc(Nc2nc3nc(C(F)(F)F)cc(-c4cnccn4)n3n2)ccc1-n1cnc(C)c1` [Example 41, [3-Methoxy-4-(4-methyl-imidazol-1-yl)-phenyl]-(7-pyrazin-2-yl-5-trifluoromethyl-[1,2,4]triazolo[1,5-a]pyrimidin-2-yl)-amine] showed an EC50 of 4310 nM.

As to `COc1cc(Nc2nc3c(-c4ccc(F)cc4C)cc(C)cn3n2)ccc1-n1cnc(C)c1` [Example 66, [8-(4-Fluoro-2-methyl-phenyl)-6-methyl-[1,2,4]triazolo[1,5-a]pyridin-2-yl]-[3-methoxy-4-(4-methyl-imidazol-1-yl)-phenyl]-amine], the EC50 is 238 nM. The compound `COc1cccn2nc(Nc3ccc(-n4cnc(C)c4)c(C#N)c3)nc12` [Example 3, 5-(8-Methoxy-[1,2,4]triazolo[1,5-a]pyridin-2-ylamino)-2-(4-methyl-imidazol-1-yl)-benzonitrile] displayed an EC50 of 3350 nM.

Compound `COc1cc(Nc2nc3c(Cl)cc(C(F)(F)F)cn3n2)ccc1-n1cnc(C)c1` [Example 48, (8-Chloro-6-trifluoromethyl-[1,2,4]triazolo[1,5-a]pyridin-2-yl)-[3-methoxy-4-(4-methyl-imidazol-1-yl)-phenyl]-amine] displayed an EC50 of 4510 nM.

In the case of `Cc1cn(-c2ccc(Nc3nc4c(-c5ccc(F)cc5Cl)cccn4n3)cc2C#N)cn1` [Example 113, 5-(8-(2-chloro-4-fluorophenyl)-[1,2,4]triazolo[1,5-a]pyridin-2-ylamino)-2-(4-methyl-1H-imidazol-1-yl)benzonitrile], the response was half-maximal at 81 nM (EC50). Turning to `COc1cc(Nc2nc3cccc(C(F)(F)F)n3n2)ccc1-n1cnc(C)c1` [Example 17, [3-Methoxy-4-(4-methyl-imidazol-1-yl)-phenyl]-(5-trifluoromethyl-[1,2,4]triazolo[1,5-a]pyridin-2-yl)-amine], it took 285 nM to reach a half-maximal effect (EC50).

The compound `COc1cc(Nc2nc3ncc(C#N)c(-c4ccccc4C)n3n2)ccc1-n1cnc(C)c1` [Example 67, 2-(3-Methoxy-4-(4-methyl-1H-imidazol-1-yl)phenylamino)-7-o-tolyl-[1,2,4]triazolo[1,5-a]pyrimidine-6-carbonitrile] had an EC50 of 450 nM. Under `COc1cc(Nc2nc3nc(C(C)C)cc(C(C)C)n3n2)ccc1-n1cnc(C)c1` [Example 25, (5,7-Diisopropyl-[1,2,4]triazolo[1,5-a]pyrimidin-2-yl)-[3-methoxy-4-(4-methyl-imidazol-1-yl)-phenyl]-amine acetate] stands 601 nM. With `COc1cc(Nc2nc3c(-c4ccc(CC#N)cc4)cc(C)cn3n2)ccc1-n1cnc(C)c1` [Example 83, 2-(4-(2-(3-Methoxy-4-(4-methyl-1H-imidazol-1-yl)phenylamino)-6-methyl-[1,2,4]triazolo[1,5-a]pyridin-8-yl)phenyl)acetonitrile], the EC50 came to 408 nM.

Consider `COc1cc(Nc2nc3nccc(-c4ccc(F)cc4)n3n2)ccc1-n1cnc(C)c1` [Example 71, [7-(4-Fluoro-phenyl)-[1,2,4]triazolo[1,5-a]pyrimidin-2-yl]-[3-methoxy-4-(4-methyl-imidazol-1-yl)-phenyl]-amine], for which the midpoint of the response, the EC50, lay at 270 nM. In turn, `COc1cc(Nc2nc3c(-c4ccc(F)c(F)c4)cc(C(F)(F)F)cn3n2)ccc1-n1cnc(C)c1` [Example 80, 8-(3,4-Difluorophenyl)-N-(3-methoxy-4-(4-methyl-1H-imidazol-1-yl)phenyl)-6-(trifluoromethyl)-[1,2,4]triazolo[1,5-a]pyridin-2-amine] had an EC50 of 121 nM. Consider `COc1cc(Nc2nc3n(n2)C(c2ccc(Cl)cc2)CC(=O)N3)ccc1-n1cnc(C)c1` (stereo not shown) [Example 61, 7-(4-Chloro-phenyl)-2-[3-methoxy-4-(4-methyl-imidazol-1-yl)-phenylamino]-6,7-dihydro-4H-[1,2,4]triazolo[1,5-a]pyrimidin-5-one], for which a half-maximal effect (EC50) was put at 831 nM.

On to `COc1ccc(-c2ccccc2)n2nc(Nc3ccc(-n4cnc(C)c4)c(C#N)c3)nc12` [Example 5, 5-(8-Methoxy-5-phenyl-[1,2,4]triazolo[1,5-a]pyridin-2-ylamino)-2-(4-methyl-imidazol-1-yl)-benzonitrile], for which the EC50 stood at 90 nM. Compound `COc1cc(Nc2nc3c(-c4ccc(F)c(F)c4)cc(F)cn3n2)ccc1-n1cnc(C)c1` [Example 85, 8-(3,4-Difluorophenyl)-6-fluoro-N-(3-methoxy-4-(4-methyl-1H-imidazol-1-yl)phenyl)-[1,2,4]triazolo[1,5-a]pyridin-2-amine] came in with an EC50 of 32 nM. With `COc1cc(Nc2nc3c(C)cc(Cl)cn3n2)ccc1-n1cnc(C)c1` [Example 49, (6-Chloro-8-methyl-[1,2,4]triazolo[1,5-a]pyridin-2-yl)-[3-methoxy-4-(4-methyl-imidazol-1-yl)-phenyl]-amine], the EC50 was 1350 nM.

Turning to `COc1cc(Nc2nc3cccc(N4CCOCC4)n3n2)ccc1-n1cnc(C)c1` [Example 30, [3-Methoxy-4-(4-methyl-imidazol-1-yl)-phenyl]-(5-morpholin-4-yl-[1,2,4]triazolo[1,5-a]pyridin-2-yl)-amine], the half-maximal effective concentration (EC50) was 247 nM. Under `CCCc1cccc2nc(Nc3ccc(-n4cnc(C)c4)c(OC)c3)nn12` [Example 16, [3-Methoxy-4-(4-methyl-imidazol-1-yl)-phenyl]-(5-propyl-[1,2,4]triazolo[1,5-a]pyridin-2-yl)-amine] stands 197 nM; under `COc1ccc(-c2cc(C)cn3nc(Nc4ccc(-n5cnc(C)c5)c(OC)c4)nc23)c(OC)c1` [Example 84, 8-(2,4-Dimethoxyphenyl)-N-(3-methoxy-4-(4-methyl-1H-imidazol-1-yl)phenyl)-6-methyl-[1,2,4]triazolo[1,5-a]pyridin-2-amine], 321 nM; under `COc1cc(Nc2nc3ncc(C#N)c(-c4ccc(Cl)cc4)n3n2)ccc1-n1cnc(C)c1` [Example 39, 7-(4-Chloro-phenyl)-2-[3-methoxy-4-(4-methyl-imidazol-1-yl)-phenylamino]-[1,2,4]triazolo[1,5-a]pyrimidine-6-carbonitrile], 145 nM.

`COc1cc(Nc2nc3cccc(N4CCCC4)n3n2)ccc1-n1cnc(C)c1` [Example 12, [3-Methoxy-4-(4-methyl-imidazol-1-yl)-phenyl]-(5-pyrrolidin-1-yl-[1,2,4]triazolo[1,5-a]pyridin-2-yl)-amine] came in with an EC50 of 400 nM. Take `COc1cc(Nc2nc3c(-c4ccc(F)cc4Cl)ccc(C(C)(C)O)n3n2)ccc1-n1cnc(C)c1` [Example 121, 2-{8-(2-Chloro-4-fluoro-phenyl)-2-[3-methoxy-4-(4-methyl-imidazol-1-yl)-phenylamino]-[1,2,4]triazolo[1,5-a]pyridin-5-yl}-propan-2-ol]: the EC50 came to 76 nM. The figure for `COc1cc(Nc2nc3n(n2)C(c2ccc(F)cc2)CN(CC(F)(F)F)C3)ccc1-n1cnc(C)c1` (stereo not shown) [Example 58, 5-(4-fluorophenyl)-N-(3-methoxy-4-(4-methyl-1H-imidazol-1-yl)phenyl)-7-(2,2,2-trifluoroethyl)-5,6,7,8-tetrahydro-[1,2,4]triazolo[1,5-a]pyrazin-2-amine] is 538 nM.

`COc1cc(Nc2nc3c(-c4ccc(Cl)cc4)ccc(C(C)(C)O)n3n2)ccc1-n1cnc(C)c1` [Example 116, 2-{8-(4-Chloro-phenyl)-2-[3-methoxy-4-(4-methyl-imidazol-1-yl)-phenylamino]-[1,2,4]triazolo[1,5-a]pyridin-5-yl}-propan-2-ol]: the EC50 is 117 nM. In turn, `COc1cc(Nc2nc3c(-c4ccc(F)cc4)cc(C)cn3n2)ccc1-n1cnc(C)c1` [Example 46, [8-(4-Fluoro-phenyl)-6-methyl-[1,2,4]triazolo[1,5-a]pyridin-2-yl]-[3-methoxy-4-(4-methyl-imidazol-1-yl)-phenyl]-amine] registered an EC50 of 180 nM. In the case of `COc1cc(Nc2nc3c(OC)ccc(-c4ccc(F)cc4)n3n2)ccc1-n1cnc(C)c1` [Example 22, [5-(4-Fluoro-phenyl)-8-methoxy-[1,2,4]triazolo[1,5-a]pyridin-2-yl]-[3-methoxy-4-(4-methyl-imidazol-1-yl)-phenyl]-amine], the EC50 turned out to be 74 nM.

Regarding `Cc1cn(-c2ccc(Nc3nc4c(-c5ccc(F)cc5Cl)cccn4n3)cc2F)cn1` [Example 110, 8-(2-chloro-4-fluorophenyl)-N-(3-fluoro-4-(4-methyl-1H-imidazol-1-yl)phenyl)-[1,2,4]triazolo[1,5-a]pyridin-2-amine], the midpoint of the response, the EC50, lay at 29 nM. On to `COc1cc(Nc2nc3c(-c4ccc(F)cc4Cl)cc(C4CC4)cn3n2)ccc1-n1cnc(C)c1` [Example 148, [8-(2-Chloro-4-fluoro-phenyl)-6-cyclopropyl-[1,2,4]triazolo[1,5-a]pyridin-2-yl]-[3-methoxy-4-(4-methyl-imidazol-1-yl)-phenyl]-amine], for which the response was half-maximal at 90 nM (EC50).

With `COc1cc(Nc2nc3c(-c4ccc5nc(C)oc5c4)cc(C)cn3n2)ccc1-n1cnc(C)c1` [Example 87, N-(3-Methoxy-4-(4-methyl-1H-imidazol-1-yl)phenyl)-6-methyl-8-(2-methylbenzo[d]oxazol-6-yl)-[1,2,4]triazolo[1,5-a]pyridin-2-amine], the EC50 was determined as 44 nM.

For orientation: EC50 means the concentration needed to bring the measured effect to its halfway point. A lower EC50 goes with higher potency in that assay.

Source of the values: patent US20110190269A1, “GAMMA SECRETASE MODULATORS” (priority 2010, published 2011).
